Assay results taken from paper PMC12410356 (International Journal for Parasitology: Drugs and Drug …, 2025).
Several values for one entry are separate records, joined by “and”; a condition that tells them apart may be missing. Identical values can stand only once.

The compounds below were run on E. multilocularis metacestode vesicles (assay: Phosphoglucose isomerase (PGI) release assay (damage-marker release) on metacestode vesicles). Conditions: overview screen, 10 μM, singlets, 5 days, relative to 0.1 % Triton X-100, DMSO subtracted.
Type: cell-based, Echinococcus multilocularis

First: COc1ccc(SCC(=O)N2c3ccccc3Sc3ccccc32)cc1 [MMV1578573]
Second: O=c1cc(OCc2ccccc2)ccn1Cc1ccccc1 [MMV1579775]
The “PGI d5 (relative PGI release)” value of the first is lower: -3.455% for the first, -1.928% for the second.

First: CN1c2ccc(Cl)cc2N(c2ccccc2)C(=O)c2cn(Cc3ccc(CN4CCOCC4)cc3)nc21 [MMV1782222]
Second: CCN1CCN(Cc2nc3ccc([N+](=O)[O-])cc3c(=O)n2-c2ccccc2F)CC1 [MMV275100]
The “PGI d5 (relative PGI release)” value of the first is lower: -0.005582% for the first, 0.006823% for the second.

Going from `O=C(NC1CCCc2c1[nH]c1ccc(Cl)cc21)c1ccccn1` (stereo not drawn) [MMV690621] to `O=C(NC(=O)N1CCCc2ccccc21)c1ccc(Cl)cc1Cl` [MMV1782218], the “PGI d5 (relative PGI release)” value falls from 0.1463% to -2.44%.

Compared with `O=C(O)c1cc(-c2ccc(Br)cc2)nc2ccc(Cl)cc12` [MMV247764], `O=C(c1cc(O)nc2ccccc12)N1CCN(c2ccccc2)CC1` [MMV596723] is lower in “PGI d5 (relative PGI release)” value: 0.5774% for the first, 0.1357% for the second.

First: Cc1[nH]c2ccccc2c1CC(=O)N[C@@H](Cc1ccccc1)C(=O)N(C)c1ccccc1 [MMV1580798]
Second: O=C(N[C@H](Cc1cccc2ccccc12)C(=O)NCCc1c[nH]cn1)C1Cc2ccccc2C1 [MMV1782109]
The “PGI d5 (relative PGI release)” value of the first is higher: 0.141% for the first, -2.59% for the second.

Going from `CCN(CC)CCn1c(=N)n(CC(O)COc2ccc(Cl)cc2Cl)c2ccccc21` (stereo not drawn) [MMV000725] to `CCOC(=O)Nc1cc(NC(C)CC(C)CN(CC)CC)c2nc(-c3ccccc3)c(-c3ccccc3)nc2n1` (stereo not drawn) [MMV1633967], the “PGI d5 (relative PGI release)” value falls from -2.18% to -2.798%.

First: Nc1cnn(C2OC(CO)C(O)C2O)c(=O)n1 (stereo not drawn) [MMV1580495]
Second: Nc1nc(NC2Cc3ccc(F)cc3C2)nc(N2CCCCC2)n1 (stereo not drawn) [MMV1580839]
The “PGI d5 (relative PGI release)” value of the first is higher: 0.6182% for the first, -3.67% for the second.

Going from `CN(C/C=C/C#CC(C)(C)C)Cc1cccc2ccccc12` [MMV1634359] to `CN(C)CCNC(=O)c1cccc2cccnc12` [MMV811071], the “PGI d5 (relative PGI release)” value rises from -1.48% to 0.8254%.

First: Cc1nc(N(C)C(=O)Cc2ccc(-c3ccccn3)cc2)sc1S(N)(=O)=O [MMV1580486]
Second: Cc1ccc(Oc2ccccc2-c2csc(N=C3NCCCN3)n2)c(C)c1 [MMV1634493]
The “PGI d5 (relative PGI release)” value of the first is lower: -0.111% for the first, 4.111% for the second.

Compared with `CC[N+]1(C/C2=C/CCCCCC2)CCC(NC(=O)C2c3cc(Cl)ccc3Oc3ccc(Cl)cc32)CC1.[I-]` (stereo not drawn) [MMV1580489], `CC[C@@]1(O)C(=O)OCc2c1cc1n(c2=O)Cc2cc3c(CN(C)C)c(O)ccc3nc2-1.Cl` [MMV1633678] is lower in “PGI d5 (relative PGI release)” value: 1.482% for the first, 0.263% for the second.

Compared with `CN1CCN(c2ccc3[nH]c(-c4ccc5[nH]c(-c6ccc(O)cc6)nc5c4)nc3c2)CC1` [MMV020752], `CC(C)(C)c1cccc(-c2nc3cc(C(=N)N)ccc3[nH]2)c1O` [MMV1581548] is higher in “PGI d5 (relative PGI release)” value: -2.507% for the first, -1.312% for the second.

With `C=CCc1cc(Cc2cnc(N)nc2N)cc(OC)c1O` [MMV1580849] the “PGI d5 (relative PGI release)” value was 24.5% and 24.5063%.

Same assay, conditions: overview screen, 10 μM, singlets, 12 days, relative to 0.1 % Triton X-100, DMSO subtracted

Going from `COc1ccc(SCC(=O)N2c3ccccc3Sc3ccccc32)cc1` [MMV1578573] to `O=c1cc(OCc2ccccc2)ccn1Cc1ccccc1` [MMV1579775], the “PGI d12 (relative PGI release)” value falls from -10.5042% to -10.779%.

Going from `CN1c2ccc(Cl)cc2N(c2ccccc2)C(=O)c2cn(Cc3ccc(CN4CCOCC4)cc3)nc21` [MMV1782222] to `CCN1CCN(Cc2nc3ccc([N+](=O)[O-])cc3c(=O)n2-c2ccccc2F)CC1` [MMV275100], the “PGI d12 (relative PGI release)” value falls from 0.3517% to -0.1551%.

Compared with `O=C(NC1CCCc2c1[nH]c1ccc(Cl)cc21)c1ccccn1` (stereo not drawn) [MMV690621], `O=C(NC(=O)N1CCCc2ccccc21)c1ccc(Cl)cc1Cl` [MMV1782218] is lower in “PGI d12 (relative PGI release)” value: -17.1395% for the first, -25.0073% for the second.

Compared with `O=C(O)c1cc(-c2ccc(Br)cc2)nc2ccc(Cl)cc12` [MMV247764], `O=C(c1cc(O)nc2ccccc12)N1CCN(c2ccccc2)CC1` [MMV596723] is lower in “PGI d12 (relative PGI release)” value: -0.4305% for the first, -19.4413% for the second.

Compared with `Cc1[nH]c2ccccc2c1CC(=O)N[C@@H](Cc1ccccc1)C(=O)N(C)c1ccccc1` [MMV1580798], `O=C(N[C@H](Cc1cccc2ccccc12)C(=O)NCCc1c[nH]cn1)C1Cc2ccccc2C1` [MMV1782109] is lower in “PGI d12 (relative PGI release)” value: -4.531% for the first, -25.3398% for the second.

Compared with `CCN(CC)CCn1c(=N)n(CC(O)COc2ccc(Cl)cc2Cl)c2ccccc21` (stereo not drawn) [MMV000725], `CCOC(=O)Nc1cc(NC(C)CC(C)CN(CC)CC)c2nc(-c3ccccc3)c(-c3ccccc3)nc2n1` (stereo not drawn) [MMV1633967] is lower in “PGI d12 (relative PGI release)” value: -13.7901% for the first, -20.9085% for the second.

Compared with `Nc1cnn(C2OC(CO)C(O)C2O)c(=O)n1` (stereo not drawn) [MMV1580495], `Nc1nc(NC2Cc3ccc(F)cc3C2)nc(N2CCCCC2)n1` (stereo not drawn) [MMV1580839] is lower in “PGI d12 (relative PGI release)” value: 10.061% for the first, -6.152% for the second.

Compared with `CN(C/C=C/C#CC(C)(C)C)Cc1cccc2ccccc12` [MMV1634359], `CN(C)CCNC(=O)c1cccc2cccnc12` [MMV811071] is higher in “PGI d12 (relative PGI release)” value: -21.017% for the first, 33.0305% for the second.

Going from `Cc1nc(N(C)C(=O)Cc2ccc(-c3ccccn3)cc2)sc1S(N)(=O)=O` [MMV1580486] to `Cc1ccc(Oc2ccccc2-c2csc(N=C3NCCCN3)n2)c(C)c1` [MMV1634493], the “PGI d12 (relative PGI release)” value rises from 0.7043% to 7.6311%.

Going from `CC[N+]1(C/C2=C/CCCCCC2)CCC(NC(=O)C2c3cc(Cl)ccc3Oc3ccc(Cl)cc32)CC1.[I-]` (stereo not drawn) [MMV1580489] to `CC[C@@]1(O)C(=O)OCc2c1cc1n(c2=O)Cc2cc3c(CN(C)C)c(O)ccc3nc2-1.Cl` [MMV1633678], the “PGI d12 (relative PGI release)” value falls from -2.113% to -2.724%.

First: CN1CCN(c2ccc3[nH]c(-c4ccc5[nH]c(-c6ccc(O)cc6)nc5c4)nc3c2)CC1 [MMV020752]
Second: CC(C)(C)c1cccc(-c2nc3cc(C(=N)N)ccc3[nH]2)c1O [MMV1581548]
The “PGI d12 (relative PGI release)” value of the first is higher: 7.527% for the first, -24.7037% for the second.

With `C=CCc1cc(Cc2cnc(N)nc2N)cc(OC)c1O` [MMV1580849] the “PGI d12 (relative PGI release)” value was -6.332%.

These compounds were tested on E. multilocularis metacestode vesicles (assay: Metacestode vesicle viability assay (ATP, CellTiter-Glo)). Conditions: 10 µM.
Type: cell-based, Echinococcus multilocularis
Experimental: Viability was assessed after 12 days using the same metacestode vesicles as for the PGI release assay. Triton X-100 was added to each well to a final concentration of 0.1 %. Subsequently the metacestode vesicles were broken mechanically and 50 μL of the supernatant was mixed with 50 μL of CellTiter-Glo® buffer (Promega, Dübendorf, Switzerland). Measurements were performed on a HIDEX Sense microplate reader.

Compared with `O=C(NC1CCCc2c1[nH]c1ccc(Cl)cc21)c1ccccn1` (stereo not drawn) [MMV690621], `CN1CCN(c2ccc3[nH]c(-c4ccc5[nH]c(-c6ccc(O)cc6)nc5c4)nc3c2)CC1` [MMV020752] is lower in “Viability d12 (relative viability)” value: 144.507% for the first, 69.6365% for the second.

Same assay, conditions: overview screen, 10 μM, singlets, 12 days, relative to DMSO control

Going from `COc1ccc(SCC(=O)N2c3ccccc3Sc3ccccc32)cc1` [MMV1578573] to `O=c1cc(OCc2ccccc2)ccn1Cc1ccccc1` [MMV1579775], the “Viability d12 (relative viability)” value rises from 50.7662% to 63.3743%.

Compared with `CN1c2ccc(Cl)cc2N(c2ccccc2)C(=O)c2cn(Cc3ccc(CN4CCOCC4)cc3)nc21` [MMV1782222], `CCN1CCN(Cc2nc3ccc([N+](=O)[O-])cc3c(=O)n2-c2ccccc2F)CC1` [MMV275100] is lower in “Viability d12 (relative viability)” value: 123.597% for the first, 107.175% for the second.

First: O=C(O)c1cc(-c2ccc(Br)cc2)nc2ccc(Cl)cc12 [MMV247764]
Second: O=C(c1cc(O)nc2ccccc12)N1CCN(c2ccccc2)CC1 [MMV596723]
The “Viability d12 (relative viability)” value of the first is lower: 115.677% for the first, 136.964% for the second.

Going from `Cc1[nH]c2ccccc2c1CC(=O)N[C@@H](Cc1ccccc1)C(=O)N(C)c1ccccc1` [MMV1580798] to `O=C(N[C@H](Cc1cccc2ccccc12)C(=O)NCCc1c[nH]cn1)C1Cc2ccccc2C1` [MMV1782109], the “Viability d12 (relative viability)” value falls from 204.25% to 29.391%.

Going from `CCN(CC)CCn1c(=N)n(CC(O)COc2ccc(Cl)cc2Cl)c2ccccc21` (stereo not drawn) [MMV000725] to `O=C(NC(=O)N1CCCc2ccccc21)c1ccc(Cl)cc1Cl` [MMV1782218], the “Viability d12 (relative viability)” value falls from 72.9764% to 60.7859%.

Going from `Nc1cnn(C2OC(CO)C(O)C2O)c(=O)n1` (stereo not drawn) [MMV1580495] to `Nc1nc(NC2Cc3ccc(F)cc3C2)nc(N2CCCCC2)n1` (stereo not drawn) [MMV1580839], the “Viability d12 (relative viability)” value rises from 84.6299% to 110.365%.

Compared with `CN(C/C=C/C#CC(C)(C)C)Cc1cccc2ccccc12` [MMV1634359], `CN(C)CCNC(=O)c1cccc2cccnc12` [MMV811071] is lower in “Viability d12 (relative viability)” value: 186.198% for the first, 78.9047% for the second.

First: Cc1nc(N(C)C(=O)Cc2ccc(-c3ccccn3)cc2)sc1S(N)(=O)=O [MMV1580486]
Second: Cc1ccc(Oc2ccccc2-c2csc(N=C3NCCCN3)n2)c(C)c1 [MMV1634493]
The “Viability d12 (relative viability)” value of the first is higher: 136.799% for the first, 36.7387% for the second.

First: CC[N+]1(C/C2=C/CCCCCC2)CCC(NC(=O)C2c3cc(Cl)ccc3Oc3ccc(Cl)cc32)CC1.[I-] (stereo not drawn) [MMV1580489]
Second: CC[C@@]1(O)C(=O)OCc2c1cc1n(c2=O)Cc2cc3c(CN(C)C)c(O)ccc3nc2-1.Cl [MMV1633678]
The “Viability d12 (relative viability)” value of the first is lower: 73.6372% for the first, 288.666% for the second.

Going from `CCOC(=O)Nc1cc(NC(C)CC(C)CN(CC)CC)c2nc(-c3ccccc3)c(-c3ccccc3)nc2n1` (stereo not drawn) [MMV1633967] to `CC(C)(C)c1cccc(-c2nc3cc(C(=N)N)ccc3[nH]2)c1O` [MMV1581548], the “Viability d12 (relative viability)” value falls from 104.121% to 76.2328%.

With `C=CCc1cc(Cc2cnc(N)nc2N)cc(OC)c1O` [MMV1580849] the “Viability d12 (relative viability)” value was 47.2094%.
